# Experimental data: ChEMBL document CHEMBL1201862, “PubChem BioAssay data set” (2004)
# Active and inactive are the calls of the source.
# Experiments:
# HeLa = assay: HeLa cell cytotoxicity, dose response, cytotoxicity control for MITF activator project, CellTiter-Glo luminescence, cherry-pick samples (AID 540259); assay type: functional, cell-based; details: Homo sapiens
# Protein skinhead-1 = molecular target: T1, Protein skinhead-1 (Caenorhabditis elegans, UniProt P34707); assay type: functional
# T1 sequence (P34707 whole entry): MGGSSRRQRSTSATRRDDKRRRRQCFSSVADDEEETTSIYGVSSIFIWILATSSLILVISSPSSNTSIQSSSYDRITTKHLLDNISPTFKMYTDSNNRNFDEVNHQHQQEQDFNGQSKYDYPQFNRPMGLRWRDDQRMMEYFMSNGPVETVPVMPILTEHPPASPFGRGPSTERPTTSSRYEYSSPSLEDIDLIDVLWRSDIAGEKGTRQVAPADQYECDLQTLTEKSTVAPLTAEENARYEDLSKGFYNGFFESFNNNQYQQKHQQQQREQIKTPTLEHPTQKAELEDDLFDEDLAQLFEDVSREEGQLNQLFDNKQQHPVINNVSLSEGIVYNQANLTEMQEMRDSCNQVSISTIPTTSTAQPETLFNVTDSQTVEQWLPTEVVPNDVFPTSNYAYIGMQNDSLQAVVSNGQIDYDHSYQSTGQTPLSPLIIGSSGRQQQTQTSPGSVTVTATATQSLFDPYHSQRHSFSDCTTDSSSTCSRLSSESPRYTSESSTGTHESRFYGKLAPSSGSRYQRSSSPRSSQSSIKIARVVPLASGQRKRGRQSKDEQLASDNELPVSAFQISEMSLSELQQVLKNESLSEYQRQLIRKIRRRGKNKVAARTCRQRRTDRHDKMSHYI
# [1] = molecular target: T2, Oxysterols receptor LXR-beta (Homo sapiens, UniProt P55055); assay type: functional, cell-based;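 also: agonist activity at LXR measured by a cell-based luminescence readout across a dose range, run as a counterscreen for daf-12 agonists; HEK293 cells with Gal4-LXR fusion and GAL4-driven luciferase reporter; potency for activation of Gal4-LXR reporter so compounds are agonists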
# T2 sequence (P55055 whole entry): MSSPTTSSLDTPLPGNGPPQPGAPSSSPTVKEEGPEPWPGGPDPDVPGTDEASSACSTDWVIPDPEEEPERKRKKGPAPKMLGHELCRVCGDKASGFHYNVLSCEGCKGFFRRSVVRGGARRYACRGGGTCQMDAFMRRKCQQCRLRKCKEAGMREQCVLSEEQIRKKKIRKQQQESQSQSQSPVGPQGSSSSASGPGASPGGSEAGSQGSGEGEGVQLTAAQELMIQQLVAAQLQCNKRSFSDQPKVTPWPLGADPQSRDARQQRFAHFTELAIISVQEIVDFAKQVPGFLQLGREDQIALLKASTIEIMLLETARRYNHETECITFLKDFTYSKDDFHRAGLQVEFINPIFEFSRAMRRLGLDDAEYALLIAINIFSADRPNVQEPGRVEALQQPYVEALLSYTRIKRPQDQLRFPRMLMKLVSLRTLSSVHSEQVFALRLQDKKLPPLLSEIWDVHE
# [2] = A549 cell cytotoxicity, dose response, cytotoxicity control, plate reader, cherry-pick, antagonist series (AID 743412); assay type: functional, cell-based
# [3] = LGR2 antagonists, dose response, cell-based, HEK293, CRE-luciferase reporter, cherry pick (AID 743342); assay type: functional
# [4] = A Cell-Based Confirmatory Screen for Compounds that Inhibit VEEV, TC-83 (8).; assay type: functional
# Aminopeptidase N = molecular target: T3, Aminopeptidase N (Plasmodium falciparum FcB1/Columbia, UniProt O96935); assay: P. falciparum M1AAP inhibitors, biochemical, fluorogenic H-Leu-NHMec substrate, 1536-well (AID 1445); parameters: species or system Plasmodium falciparum 3D7, 3D7
# T3 sequence (O96935 whole entry): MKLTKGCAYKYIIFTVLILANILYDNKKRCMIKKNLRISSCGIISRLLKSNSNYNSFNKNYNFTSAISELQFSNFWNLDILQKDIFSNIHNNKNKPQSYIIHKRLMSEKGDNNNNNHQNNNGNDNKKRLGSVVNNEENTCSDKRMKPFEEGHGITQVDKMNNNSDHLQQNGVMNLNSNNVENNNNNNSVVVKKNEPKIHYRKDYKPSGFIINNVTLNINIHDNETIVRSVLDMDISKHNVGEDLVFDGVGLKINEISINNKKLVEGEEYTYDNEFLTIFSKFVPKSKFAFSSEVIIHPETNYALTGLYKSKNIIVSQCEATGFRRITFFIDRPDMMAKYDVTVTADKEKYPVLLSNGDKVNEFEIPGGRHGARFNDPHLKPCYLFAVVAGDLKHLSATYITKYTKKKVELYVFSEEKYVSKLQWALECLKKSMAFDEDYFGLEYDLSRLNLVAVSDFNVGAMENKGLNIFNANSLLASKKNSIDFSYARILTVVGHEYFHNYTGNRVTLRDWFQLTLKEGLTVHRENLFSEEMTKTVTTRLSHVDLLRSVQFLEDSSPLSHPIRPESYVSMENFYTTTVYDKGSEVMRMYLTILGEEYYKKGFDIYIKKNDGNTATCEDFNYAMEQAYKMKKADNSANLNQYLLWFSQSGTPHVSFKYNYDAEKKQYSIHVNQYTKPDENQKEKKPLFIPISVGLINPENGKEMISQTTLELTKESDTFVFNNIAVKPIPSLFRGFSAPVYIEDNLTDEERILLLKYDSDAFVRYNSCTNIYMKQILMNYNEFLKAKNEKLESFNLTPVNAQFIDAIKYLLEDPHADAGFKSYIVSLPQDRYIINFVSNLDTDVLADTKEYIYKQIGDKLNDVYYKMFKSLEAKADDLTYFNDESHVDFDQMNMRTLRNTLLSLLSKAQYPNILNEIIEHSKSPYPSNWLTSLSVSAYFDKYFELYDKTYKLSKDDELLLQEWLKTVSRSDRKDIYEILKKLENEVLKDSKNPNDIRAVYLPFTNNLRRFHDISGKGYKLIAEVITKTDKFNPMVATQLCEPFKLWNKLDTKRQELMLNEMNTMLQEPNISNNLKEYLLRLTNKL
# [5] = molecular target: Endoplasmic reticulum aminopeptidase 1 (Homo sapiens, UniProt Q9NZ08); assay: ERAP1 aminopeptidase inhibitors, dose response, biochemical, cherry-pick, set 2, plate reader (AID 743314)
# [6] = molecular target: T4, Sentrin-specific protease 8 (Homo sapiens, UniProt Q96LD8); assay type: functional
# T4 sequence (Q96LD8 whole entry): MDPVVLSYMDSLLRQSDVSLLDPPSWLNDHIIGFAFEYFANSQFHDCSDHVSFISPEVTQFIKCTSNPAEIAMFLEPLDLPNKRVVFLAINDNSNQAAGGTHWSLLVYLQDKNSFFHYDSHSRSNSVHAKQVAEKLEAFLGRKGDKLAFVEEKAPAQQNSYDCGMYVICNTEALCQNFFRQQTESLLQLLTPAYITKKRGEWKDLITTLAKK
# [7] = molecular target: T4, Sentrin-specific protease 8; assay type: functional; remark: listed apart in the source
# [8] = HEp-2 cell cytotoxicity, dose response, cytotoxicity control for RSV inhibitor project, HTS (AID 2410); assay type: functional; details: human respiratory syncytial virus
# [9] = molecular target: Arf-GAP with SH3 domain, ANK repeat and PH domain-containing protein 1 (Homo sapiens, UniProt Q9ULH1); assay type: functional;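 also: biochemical fluorescence polarization dose–response screen measuring inhibition of ASAP1; ASAP1 GAP domain stimulating GTP hydrolysis by truncated human ARF1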
# H9c2 = assay: cells; assay type: functional, cell-based; details: Rattus norvegicus, H9c2, Myocardium;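 also: confirmatory concentration-response retest of ultra-high-throughput screening hits for modulation of myocardial damage; cell death induced by hydrogen peroxide oxidative stress; compound pretreatment for 60 min then peroxide exposure for 2 h; potency is for protecting the cells against peroxide damage rather than for killing them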
# [10] = molecular target: T5, Probable nicotinate-nucleotide adenylyltransferase (Staphylococcus aureus (strain N315), UniProt P65502); assay type: functional, Staphylococcus aureus subsp. aureus N315;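 as to IC50 Mean: confirmatory dose-response retesting of NadD inhibitor hits first found in an ultra-high-throughput screen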
# [11] = molecular target: T5, Probable nicotinate-nucleotide adenylyltransferase; assay type: functional, Staphylococcus aureus subsp. aureus N315; details: read-out: IC50_Mean
# Albumin = Albumin (Bos taurus, UniProt P02769); assay: Counterscreen for inhibitors of T-cell receptor (TCR)-CD3 interaction: Fluorescence-based biochemical high throughput dose response assay to identify inhibitors of T-cell receptor (TCR)-CD3 interaction using a TAMRA-labeled BSA probe.; assay type: functional
# Nonstructural protein 1 = Nonstructural protein 1 (Influenza A virus, UniProt Q194T2); assay type: functional, Influenza A virus (A/California/07/2009(H1N1))
# Protein S100-A4 = Protein S100-A4 (Homo sapiens, UniProt P26447); assay: S100A4-myosin IIA binding inhibitor potency, dose response, biochemical, fluorescence polarization, cherry-picked hits (AID 687001); assay type: functional
# Leucine aminopeptidase = molecular target: T6, Leucine aminopeptidase (Plasmodium falciparum 3D7, UniProt Q8IL11); assay: P. falciparum M17LAP inhibitors, primary screen, biochemical, fluorogenic H-Leu-NHMec substrate, 1536-well (AID 1619); assay type: functional
# T6 sequence (Q8IL11 whole entry): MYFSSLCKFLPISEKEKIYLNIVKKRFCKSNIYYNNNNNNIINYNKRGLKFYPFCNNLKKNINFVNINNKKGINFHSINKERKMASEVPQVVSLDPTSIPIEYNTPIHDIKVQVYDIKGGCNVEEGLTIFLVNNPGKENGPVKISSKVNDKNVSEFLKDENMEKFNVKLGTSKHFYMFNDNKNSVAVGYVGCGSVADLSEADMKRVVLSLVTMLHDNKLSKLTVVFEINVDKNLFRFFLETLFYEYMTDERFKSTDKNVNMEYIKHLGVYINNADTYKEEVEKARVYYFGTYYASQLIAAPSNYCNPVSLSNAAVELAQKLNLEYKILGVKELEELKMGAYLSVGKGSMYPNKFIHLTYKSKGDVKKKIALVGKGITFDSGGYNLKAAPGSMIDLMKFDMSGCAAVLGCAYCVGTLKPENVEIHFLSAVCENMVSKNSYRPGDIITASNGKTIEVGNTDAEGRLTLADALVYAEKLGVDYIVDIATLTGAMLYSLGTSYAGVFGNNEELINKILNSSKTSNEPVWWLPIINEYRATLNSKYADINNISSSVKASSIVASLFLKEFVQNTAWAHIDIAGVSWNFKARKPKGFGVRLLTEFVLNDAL
# Large T antigen = Large T antigen (Simian virus 40, UniProt P03070); assay type: functional, Betapolyomavirus macacae;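 also: Confirmatory-stage PubChem screen for compounds that inhibit SV40 T antigen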
# [12] = miR-122 activators in hepatoma reporter cells, dose response, cell-based, Huh7 psiCHECK-miR122, Renilla luciferase, cherry-picked (AID 651956); assay type: functional;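 also: huh7 hepatoma cells stably carrying a psiCHECK-2 miR-122 sensor plasmid; renilla luciferase signal reporting endogenous miR-122 activity after 48 h compound exposure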
# [13] = HEK293T cytotoxicity, dose response, cytotoxicity control for miR-122 modulator project, cell-based, inhibitor set, cherry-pick, set 2 (AID 720697); assay type: functional
# [14] = molecular target: T7, Methionyl-tRNA synthetase, putative (Trypanosoma brucei brucei, UniProt Q38C91); assay type: functional, Trypanosoma brucei brucei strain 927/4 GUTat10.1
# [15] = Counterscreen for inhibitors of Trypanosoma brucei methionyl tRNA synthetase (MetRS): Luminescence-based cell-based high throughput dose response assay to identify compounds that are cytotoxic to Jurkat human T lymphocyte cells.; assay type: functional
# [16] = molecular target: T7, Methionyl-tRNA synthetase, putative; assay type: functional, Trypanosoma brucei brucei strain 927/4 GUTat10.1; remark: listed apart in the source
# [17] = MITF Orthogonal Assay: SK-MEL-5 CTG Assay Measured in Cell-Based System Using Plate Reader - 2084-02_Inhibitor_Dose_DryPowder_Activity_Set7.; assay type: functional
# [18] = MITF: Counter assay: A375 proliferation Measured in Cell-Based System Using Plate Reader - 2084-03_Inhibitor_Dose_DryPowder_Activity_Set8.; assay type: functional; details: A-375
# [19] = molecular target: Fructose-bisphosphate aldolase (Mycobacterium tuberculosis, UniProt P9WQA3); assay: Fluorescence-based biochemical high throughput dose response assay for inhibitors of the fructose-bisphosphate aldolase (FBA) of M. tuberculosis.; assay type: functional
# NS3 = NS3 (Hepatitis C virus, UniProt A3EZJ3); assay: HCV NS3 helicase inhibitor potency, dose response, biochemical, fluorescence polarization, ChemBridge library (AID 743264)
# [20] = molecular target: T8, Scavenger receptor class B member 1 (Mus musculus, UniProt Q61009); assay: inhibitors of SR-BI dependent HDL uptake, dose response, ldlA[mSR-BI] CHO cells, fluorescence plate reader, dry powder, set 9 (AID 623880); assay type: functional, cell-based
# [21] = molecular target: T8, Scavenger receptor class B member 1; assay: inhibitors of SR-BI-mediated HDL uptake, dose response, cell-based, ldlA[mSR-BI] CHO, DiI fluorescence, dry powder, set 10 (AID 624029); assay type: functional
# T5 sequence (P65502 whole entry): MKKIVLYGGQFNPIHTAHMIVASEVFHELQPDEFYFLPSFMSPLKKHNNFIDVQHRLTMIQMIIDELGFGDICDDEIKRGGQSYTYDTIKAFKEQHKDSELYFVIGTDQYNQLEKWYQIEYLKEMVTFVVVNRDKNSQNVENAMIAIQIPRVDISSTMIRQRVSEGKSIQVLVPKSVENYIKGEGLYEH
# T7 sequence (Q38C91 whole entry): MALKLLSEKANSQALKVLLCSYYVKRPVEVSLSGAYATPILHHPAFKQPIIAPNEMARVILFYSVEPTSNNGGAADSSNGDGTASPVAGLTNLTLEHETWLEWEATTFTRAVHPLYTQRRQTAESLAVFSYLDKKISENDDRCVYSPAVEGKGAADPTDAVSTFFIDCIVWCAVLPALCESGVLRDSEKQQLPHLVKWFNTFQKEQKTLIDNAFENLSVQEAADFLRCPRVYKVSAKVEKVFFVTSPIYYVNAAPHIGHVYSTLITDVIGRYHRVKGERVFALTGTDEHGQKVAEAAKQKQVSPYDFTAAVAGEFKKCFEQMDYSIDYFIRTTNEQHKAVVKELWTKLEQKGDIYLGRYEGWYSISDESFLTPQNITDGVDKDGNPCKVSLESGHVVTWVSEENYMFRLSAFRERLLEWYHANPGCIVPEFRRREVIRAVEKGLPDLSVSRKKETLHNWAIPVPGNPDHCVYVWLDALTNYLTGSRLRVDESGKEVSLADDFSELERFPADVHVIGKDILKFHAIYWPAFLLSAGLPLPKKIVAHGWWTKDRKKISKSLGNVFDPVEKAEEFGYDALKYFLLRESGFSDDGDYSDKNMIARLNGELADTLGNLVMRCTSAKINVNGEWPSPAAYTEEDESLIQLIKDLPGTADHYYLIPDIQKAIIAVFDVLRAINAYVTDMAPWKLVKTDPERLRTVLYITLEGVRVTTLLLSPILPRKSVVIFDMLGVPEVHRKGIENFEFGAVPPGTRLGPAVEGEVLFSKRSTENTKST
# T8 sequence (Q61009 whole entry): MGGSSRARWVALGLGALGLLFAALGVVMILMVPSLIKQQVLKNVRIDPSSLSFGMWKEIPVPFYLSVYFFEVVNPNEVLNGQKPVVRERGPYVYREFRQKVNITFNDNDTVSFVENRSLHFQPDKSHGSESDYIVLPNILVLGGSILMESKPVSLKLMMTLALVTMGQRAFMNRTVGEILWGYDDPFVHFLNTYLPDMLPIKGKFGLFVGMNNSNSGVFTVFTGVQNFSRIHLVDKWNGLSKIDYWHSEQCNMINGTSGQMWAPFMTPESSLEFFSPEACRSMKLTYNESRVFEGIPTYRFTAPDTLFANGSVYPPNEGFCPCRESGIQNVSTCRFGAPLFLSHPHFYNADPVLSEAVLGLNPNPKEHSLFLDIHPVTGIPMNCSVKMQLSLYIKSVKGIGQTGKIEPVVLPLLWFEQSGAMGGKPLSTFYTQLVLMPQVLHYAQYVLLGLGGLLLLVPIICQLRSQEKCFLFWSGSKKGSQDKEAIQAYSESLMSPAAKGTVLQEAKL
# Fructose-bisphosphate aldolase, sequence (P9WQA3 whole entry): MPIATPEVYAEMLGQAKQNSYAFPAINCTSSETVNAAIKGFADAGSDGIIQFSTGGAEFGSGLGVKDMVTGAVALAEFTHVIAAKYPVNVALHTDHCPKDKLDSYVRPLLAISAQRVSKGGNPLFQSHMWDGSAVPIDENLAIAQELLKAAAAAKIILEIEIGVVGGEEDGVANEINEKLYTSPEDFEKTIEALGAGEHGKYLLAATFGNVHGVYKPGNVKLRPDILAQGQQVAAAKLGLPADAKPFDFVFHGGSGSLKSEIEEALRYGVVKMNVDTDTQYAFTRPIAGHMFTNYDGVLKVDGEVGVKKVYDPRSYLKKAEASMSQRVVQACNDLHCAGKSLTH
# Albumin, sequence (P02769 whole entry): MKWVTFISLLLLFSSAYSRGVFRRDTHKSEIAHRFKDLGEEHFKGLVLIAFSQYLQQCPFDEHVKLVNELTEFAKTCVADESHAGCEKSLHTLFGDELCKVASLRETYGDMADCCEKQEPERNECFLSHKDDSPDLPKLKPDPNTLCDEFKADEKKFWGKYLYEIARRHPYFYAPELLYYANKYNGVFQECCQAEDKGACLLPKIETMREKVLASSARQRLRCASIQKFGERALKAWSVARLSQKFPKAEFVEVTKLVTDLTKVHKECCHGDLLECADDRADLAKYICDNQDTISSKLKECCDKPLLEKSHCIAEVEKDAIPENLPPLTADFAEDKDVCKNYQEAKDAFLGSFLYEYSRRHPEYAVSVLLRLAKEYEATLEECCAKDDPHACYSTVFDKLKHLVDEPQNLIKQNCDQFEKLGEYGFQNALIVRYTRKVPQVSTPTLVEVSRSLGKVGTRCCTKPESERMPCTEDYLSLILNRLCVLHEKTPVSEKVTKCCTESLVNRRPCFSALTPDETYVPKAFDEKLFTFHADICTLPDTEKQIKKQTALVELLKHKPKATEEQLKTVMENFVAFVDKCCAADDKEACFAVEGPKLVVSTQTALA
# Protein S100-A4, sequence (P26447 whole entry): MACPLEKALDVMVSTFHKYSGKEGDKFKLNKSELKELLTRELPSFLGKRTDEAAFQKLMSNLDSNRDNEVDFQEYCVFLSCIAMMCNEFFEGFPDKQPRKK
# Endoplasmic reticulum aminopeptidase 1, sequence (Q9NZ08 whole entry): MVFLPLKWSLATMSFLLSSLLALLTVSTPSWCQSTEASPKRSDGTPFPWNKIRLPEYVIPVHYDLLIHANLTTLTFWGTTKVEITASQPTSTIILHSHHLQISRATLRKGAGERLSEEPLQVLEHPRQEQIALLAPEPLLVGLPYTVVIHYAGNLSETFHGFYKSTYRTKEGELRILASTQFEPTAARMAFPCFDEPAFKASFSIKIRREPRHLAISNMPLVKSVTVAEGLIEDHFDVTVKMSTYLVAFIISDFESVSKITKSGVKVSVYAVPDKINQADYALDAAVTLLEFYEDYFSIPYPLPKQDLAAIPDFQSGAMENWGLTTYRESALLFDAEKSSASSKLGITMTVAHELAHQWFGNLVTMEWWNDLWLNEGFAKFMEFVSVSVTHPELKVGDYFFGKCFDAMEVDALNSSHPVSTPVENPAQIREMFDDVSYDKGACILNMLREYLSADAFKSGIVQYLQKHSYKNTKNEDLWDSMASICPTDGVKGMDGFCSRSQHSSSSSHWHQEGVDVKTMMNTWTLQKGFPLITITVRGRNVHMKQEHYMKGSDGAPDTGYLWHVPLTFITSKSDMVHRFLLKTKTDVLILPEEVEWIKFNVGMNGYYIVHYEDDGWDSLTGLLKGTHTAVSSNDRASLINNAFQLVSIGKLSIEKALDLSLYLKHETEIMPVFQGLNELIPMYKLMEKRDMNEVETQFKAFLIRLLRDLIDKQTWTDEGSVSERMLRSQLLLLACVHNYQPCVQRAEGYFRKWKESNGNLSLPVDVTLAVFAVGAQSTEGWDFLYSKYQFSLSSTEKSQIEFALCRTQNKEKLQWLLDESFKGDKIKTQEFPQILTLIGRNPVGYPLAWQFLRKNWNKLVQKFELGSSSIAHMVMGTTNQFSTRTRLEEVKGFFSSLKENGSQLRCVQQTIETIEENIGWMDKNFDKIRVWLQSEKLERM
# Large T antigen, sequence (P03070 whole entry): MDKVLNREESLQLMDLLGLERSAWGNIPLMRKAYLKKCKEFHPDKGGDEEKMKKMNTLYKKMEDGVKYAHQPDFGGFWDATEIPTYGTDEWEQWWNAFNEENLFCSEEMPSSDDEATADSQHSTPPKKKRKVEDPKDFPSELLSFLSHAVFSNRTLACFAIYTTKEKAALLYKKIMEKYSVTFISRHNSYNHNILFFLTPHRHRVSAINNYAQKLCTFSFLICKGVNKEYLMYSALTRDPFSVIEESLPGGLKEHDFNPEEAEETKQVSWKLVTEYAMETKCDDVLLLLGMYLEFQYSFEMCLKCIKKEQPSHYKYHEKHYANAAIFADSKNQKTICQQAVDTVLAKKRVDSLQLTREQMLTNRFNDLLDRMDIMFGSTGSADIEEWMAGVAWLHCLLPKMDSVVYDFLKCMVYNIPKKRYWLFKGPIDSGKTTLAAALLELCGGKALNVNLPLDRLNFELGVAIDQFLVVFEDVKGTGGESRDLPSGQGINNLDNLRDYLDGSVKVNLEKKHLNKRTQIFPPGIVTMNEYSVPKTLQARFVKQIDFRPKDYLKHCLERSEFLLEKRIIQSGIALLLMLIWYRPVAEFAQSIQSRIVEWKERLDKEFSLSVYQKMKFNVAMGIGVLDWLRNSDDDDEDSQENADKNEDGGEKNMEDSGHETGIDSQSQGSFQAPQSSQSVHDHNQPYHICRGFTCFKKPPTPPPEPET
# NS3, sequence (A3EZJ3 whole entry): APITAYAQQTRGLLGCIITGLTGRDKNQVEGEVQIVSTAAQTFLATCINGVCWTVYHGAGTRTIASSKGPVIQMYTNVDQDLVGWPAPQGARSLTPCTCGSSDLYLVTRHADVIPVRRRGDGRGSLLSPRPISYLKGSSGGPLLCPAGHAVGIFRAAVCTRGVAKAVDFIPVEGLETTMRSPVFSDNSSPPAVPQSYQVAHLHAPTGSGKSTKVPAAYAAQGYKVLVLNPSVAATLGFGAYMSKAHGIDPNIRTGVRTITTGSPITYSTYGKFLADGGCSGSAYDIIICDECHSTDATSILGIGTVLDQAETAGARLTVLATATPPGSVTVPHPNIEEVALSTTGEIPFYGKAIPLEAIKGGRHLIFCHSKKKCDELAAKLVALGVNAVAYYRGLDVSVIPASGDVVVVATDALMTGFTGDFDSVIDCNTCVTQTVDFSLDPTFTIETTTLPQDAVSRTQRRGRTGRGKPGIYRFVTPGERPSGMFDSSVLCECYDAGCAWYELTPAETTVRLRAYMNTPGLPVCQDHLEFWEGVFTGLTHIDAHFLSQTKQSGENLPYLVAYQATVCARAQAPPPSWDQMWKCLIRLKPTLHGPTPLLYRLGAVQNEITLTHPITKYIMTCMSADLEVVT
smiles,measurement,setting,value
C/C(=N/OCc1ccc(Br)cc1)c1ccccn1,AC50,HeLa,90.3 µM (active)
same,IC50,Protein skinhead-1,34.5 µM (active)
same,EC50,[1],> 67.6 µM (inactive)
C[C@H]1CCCCO[C@@H](CN(C)C(=O)Nc2ccccc2)[C@@H](C)CN([C@@H](C)CO)C(=O)c2cc(NC(=O)NC3CCCCC3)ccc2O1,AC50,[2],43.3 µM (active)
same,AC50,[3],5.33 µM (active)
CCN1CCN(C)C/C1=N\c1ccc([N+](=O)[O-])cc1C(=O)Nc1ccccc1,IC50,[4],< 0.22 µM (active)
CN1CCN(Cc2c(O)ccc3cc(-c4ccccn4)c(=O)oc23)CC1,IC50,Aminopeptidase N,52.2 µM (active)
same,AC50,[5],1.88 µM (active)
CCCCO/C(O)=C1\C(C)=NC2(O)c3ccccc3C(=O)C12O (stereo unspecified),IC50,[6],4.54 µM (active)
same,IC50,[7],10 µM (active)
Fc1ccc(Nc2nc(-c3ccncc3)nc3ccccc23)cc1F,CC50,[8],45.1 µM (active)
same,IC50,[9],46.5 µM (inactive)
CCOC(=O)Cn1/c(=N/C(=O)c2cc(-c3cccs3)nc3ccccc23)sc2cc(S(N)(=O)=O)ccc21,IC50,H9c2,> 79 µM (inactive)
same,IC50,[10],14.2 µM (active)
same,IC50,[11],31.4 µM (active)
same,IC50,Albumin,> 94.1 µM (inactive)
CC1N(C)c2cc(NC(=O)c3ccco3)ccc2C1(C)C (stereo unspecified),IC50,Nonstructural protein 1,69.6 µM (active)
same,AC50,Protein S100-A4,1.91 µM (active)
Cc1cccc(C)c1NC(=O)CSCC(=O)c1ccc(O)c(O)c1,IC50,Leucine aminopeptidase,20.9 µM (active)
same,IC50,Large T antigen,12.8 µM (active)
same,AC50,[12],15 µM (active)
same,AC50,[13],2.43 µM (active)
COc1ccc(OCc2cc(C(=O)NCc3nc(C)cs3)no2)c(Cl)c1,IC50,[14],46.9 µM (inactive)
same,IC50,[15],83.3 µM (inactive)
same,IC50,[16],23.5 µM (inactive)
O=C1C=C(Nc2ccc(F)cc2)C(=O)c2ccccc21,AC50,[17],0.595 µM (active)
same,AC50,[18],> 70 µM (inactive)
Cc1nc2oc3c(=O)nc[nH]c3c2c2c1COC(C)(C)C2,IC50,[19],2.33 µM (active)
Cc1ccc(C)n1NC1=NC(=O)CS1,IC50,NS3,27.2 µM (inactive)
C[C@@H]1CN([C@H](C)CO)C(=O)c2cc(NC(=O)C3CCCCC3)ccc2O[C@H]1CN(C)S(=O)(=O)c1cccc(Cl)c1,AC50,[20],0.796 µM (active)
same,AC50,[21],1.22 µM (active)
